Measurements published in PMC3681905, “Anti-Influenza Activity of C60 Fullerene Derivatives” (PLoS ONE, 2013).
Where two headings read alike, the source gives them in different places.

Key:
[1] = tested on: influenza A virus A/Aichi/2/68 (H3N2); assay: microbe, parasite or virus in culture; assay type: cell-based; conditions: for IC50: read-out: IC50 H3N2 Aichi strain
[2] = tested on: influenza A virus (A/PR/8/34 (H1N1)); assay type: cell-based; conditions: 100 µM, A/PR8/34 (H1N1), western blotting
[3] = molecular target: full-length PA protein of influenza A RNA polymerase (Influenza A virus, UniProt P03433); assay: in vitro PA endonuclease assay with recombinant full-length PA protein (M13 mp18 digestion); assay type: biochemical, influenza A virus (A/PR/8/34 (H1N1)); conditions: 10 µM fullerene derivative; Fig. 3C
From the text: We expressed the recombinant full-length PA protein by using a baculovirus to infect Sf9 insect cells (Fig. 3A) and purified it using a Ni-agarose and HiTrap-Q column (Fig. 3B). […] Then, we tested the 12 fullerene derivatives using this same assay. The fullerene derivatives 2–5, 7, 8, 10, and 11 inhibited the endonuclease activity of full-length PA (Fig. 3C), which is consistent with the results for the PA endonuclease domain (Fig. 2C). The M13 mp18 band in the no. 12-treated lane was degraded (Fig. 3C lane 14), the band in the no.
The cDNA fragment corresponding to the full-length protein-coding region of PA was amplified by PCR [38] from pBMSA-PA using the primers PA_start_TOPO ([…]), PA stop ([…]), PA_mid_anti ([…]), and PA_mid_TOPO ([…]). The amplified product was then subcloned into the pENTR/D-TOPO plasmid (Gateway®, Life Technologies™, Carlsbad, CA, USA) using topoisomerase I cloning. The resulting construct was then converted to pDEST10-PA using the clonase (Fig. 3A). The plasmid was transfected into Sf9 insect cells using the helper virus. The resultant baculovirus was again transfected into Sf9 cells. The expressed full-length PA protein was purified using Ni^2+-agarose and a HiTrap Q FF column (GE Healthcare) with the AKTA prime plus system (Fig. 3B).
(§1) Influenza A RNA polymerase PA endonuclease activity assays were performed as described by Dias et al. with some modifications [12]–[16]. Briefly, the pH was lowered from 8.0 to 7.3, and 1 µg M13 mp18 single-stranded circular phage DNA was used as the substrate. A total of 0.25 µg recombinant PA endonuclease domain or full-length PA protein were added to 100 µL assay buffer for each reaction (the final concentration of the protein was approximately 0.1 µM). For the fullerene derivative nuclease assay, no PA protein was added at this step. The fullerene derivatives (summarized in Fig. 1) were then added to the reaction, and the products were analyzed by agarose electrophoresis and stained with ethidium bromide.

[4] = molecular target: PA N-terminal endonuclease domain (residues 1–220) of influenza A RNA polymerase (Influenza A virus, UniProt P03433); assay: in vitro PA endonuclease assay with recombinant PA endonuclease domain (M13 mp18 digestion, agarose electrophoresis); assay type: biochemical, influenza A virus (A/PR/8/34 (H1N1)); conditions: 10 µM fullerene derivative, Fig. 2C
Procedure: For the in vitro PA endonuclease assay, we expressed and purified a recombinant influenza PA endonuclease domain (1–220 residues; Fig. 2A, B) using bacteria as described previously [15]–[17]. For the assay, we incubated 0.1 µM recombinant PA endonuclease domain with 1 or 10 µM of each fullerene derivative (Fig. 2C). The PA endonuclease domain digested M13 mp18 circular single-stranded DNA in vitro (Fig. 2C, lanes 1 and 2) [12]–[16], and we investigated whether any of the fullerene derivatives could inhibit this activity. […] This is the first study to report that fullerene derivatives can inhibit the activity of influenza enzymes. Fullerene derivative no.
The influenza A virus (A/PR/8/34 (H1N1)) RNA polymerase PA plasmid, pBMSA-PA, was obtained from the DNA bank at Riken BioResource Center (Tsukuba, Japan; originally deposited by Susumu Nakada). The cDNA fragment corresponding to the PA N-terminal endonuclease domain (residues 1–220; Fig. 2A) was amplified by polymerase chain reaction (PCR) from pBMSA-PA. The amplified product was subcloned into the pET28a (+) plasmid (Novagen, Madison, WI, USA). The induction of recombinant protein expression was achieved by the addition of isopropyl-D-thiogalactopyranoside, and this was followed by purification using Ni^2+-agarose. The recombinant PA endonuclease domain protein was further purified to near homogeneity (Fig. 2B) using a HiTrapQ-FF column (GE Healthcare, Buckinghamshire, UK).
as §1

[5] = tested on: influenza A virus A/PR/8/34 (H1N1); assay: microbe, parasite or virus in culture; assay type: cell-based; conditions: for IC50: read-out: IC50 H1N1 PR8 strain
[6] = tested on: M13 mp18 single-stranded circular phage DNA; assay: fullerene derivative nuclease assay in the absence of PA protein; assay type: biochemical; conditions: 10 µM; absence of PA endonuclease; M13 mp18 substrate; Fig. 4
[7] = tested on: MDCK cells; conditions: 12.5 to 100 µM, 24 h post-incubation
[8] = solubility in water
[9] = Influenza A virus, H3N2, MDCK, 24 h
[10] = 0.1 µM recombinant PA endonuclease domain

Compound: O=C(O)C1NC(c2ccccc2)C23c4c5c6c7c8c9c(c%10c%11c2c2c4c4c%12c5c5c6c6c8c8c%13c9c9c%10c%10c%11c%11c2c2c4c4c%12c%12c5c5c6c8c6c8c%13c9c9c%10c%10c%11c2c2c4c4c%12c5c6c5c8c9c%10c2c45)C713 (centres unmarked) [no. 11, 5-phenyl [60]fullerenopyrrolidine-2-carboxylic acid]
- IC50 [1, 9]: > 100 µM
- expression levels of influenza A NP and NS1 proteins compared with DMSO-treated cells [2]: reduced
- inhibition of the endonuclease activity of full-length PA (M13 mp18 band) [3]: inhibited
- inhibition of the digestion of M13 mp18 by the PA endonuclease domain [4, 10]: significantly inhibited
- number of NP-positive cells in comparison with the control (DMSO) [5]: significantly reduced
- IC50 ([5]; Influenza A virus, MDCK, 24 h): 44 µM

Compound: [60]fullerenotricyclopropane-1,1,1′,1′,1′′,1′′-hexacarboxylic acid [no. 8]
- IC50 [1]: > 100 µM
- expression levels of influenza A NP and NS1 proteins compared with DMSO-treated cells [2]: slightly reduced
- inhibition of the endonuclease activity of full-length PA (M13 mp18 band) [3]: inhibited
- inhibition of the digestion of M13 mp18 by the PA endonuclease domain [4, 10]: significantly inhibited
- IC50 [5]: 37 µM

Compound: CN1CC23c4c5c6c7c8c9c(c%10c%11c2c2c4c4c%12c5c5c6c6c8c8c%13c9c9c%10c%10c%11c%11c2c2c4c4c%12c%12c5c5c6c8c6c8c%13c9c9c%10c%10c%11c2c2c4c4c%12c5c6c5c8c9c%10c2c45)C73C1c1cc[n+](C)cc1 (centres unmarked) [no. 12, 4-(1′-methyl [60]fullerenopyrrolidin-2′-yl)-1-methylpyridinium iodide]
- IC50 [1]: 63 µM
- expression levels of influenza A NP and NS1 proteins compared with DMSO-treated cells [2]: slightly reduced
- inhibition of the endonuclease activity of full-length PA (M13 mp18 band) [3]: degraded
- nuclease activity of the fullerene derivative by itself [6]: weaker nuclease activity
- inhibition of the digestion of M13 mp18 by the PA endonuclease domain ([4]; […]): slightly inhibited
- number of NP-positive cells in comparison with the control (DMSO) [5]: significantly reduced
- IC50 [5]: 78 µM

Compound: COC1Cc2cccc(c2)Oc2c(O)cccc2CCc2ccc(cc2)Oc2cc1cc(O)c2O (centres unmarked) [Marchantin E, reference compound]
- IC50 [1, 9]: 53 µM
- expression levels of influenza A NP and NS1 proteins compared with DMSO-treated cells [2]: reduced
- cell viability vs DMSO-treated cells (MTT) [7]: not significantly different
- IC50 ([5]; Influenza A virus, MDCK, 24 h): 43 µM

Compound: CCOC(=O)CN1C(C(=O)O)C23c4c5c6c7c8c9c(c%10c%11c2c2c4c4c%12c5c5c6c6c8c8c%13c9c9c%10c%10c%11c%11c2c2c4c4c%12c%12c5c5c6c8c6c8c%13c9c9c%10c%10c%11c2c2c4c4c%12c5c6c5c8c9c%10c2c45)C73C1C(=O)OCC (centres unmarked) [no. 10, 1-ethoxycarbonylmethyl [60]fullerenopyrrolidine-2,5-dicarboxylic acid 2-ethyl ester]
- IC50 [1, 9]: > 100 µM
- expression levels of influenza A NP and NS1 proteins compared with DMSO-treated cells [2]: slightly reduced
- inhibition of the endonuclease activity of full-length PA (M13 mp18 band) [3]: inhibited
- inhibition of the digestion of M13 mp18 by the PA endonuclease domain [4, 10]: significantly inhibited
- number of NP-positive cells in comparison with the control (DMSO) [5]: slightly decreased
- IC50 ([5]; Influenza A virus, MDCK, 24 h): > 100 µM

Compound: O=C(O)CN1CCN(CC(=O)O)C23c4c5c6c7c8c9c(c%10c%11c2c2c4c4c%12c5c5c6c6c8c8c%13c9c9c%10c%10c%11c%11c2c2c4c4c%12c%12c5c5c6c8c6c8c%13c9c9c%10c%10c%11c2c2c4c4c%12c5c6c5c8c9c%10c2c45)C713 (centres unmarked) [no. 7, [60]fullerenopiperazine-1,4-diacetic acid]
- IC50 [1, 9]: > 100 µM
- expression levels of influenza A NP and NS1 proteins compared with DMSO-treated cells [2]: slightly reduced
- inhibition of the endonuclease activity of full-length PA (M13 mp18 band) [3]: inhibited
- inhibition of the digestion of M13 mp18 by the PA endonuclease domain [4, 10]: significantly inhibited
- IC50 ([5]; Influenza A virus, MDCK, 24 h): > 100 µM

Compound: O=C(O)CN1C(C(=O)O)C23c4c5c6c7c8c9c(c%10c%11c2c2c4c4c%12c5c5c6c6c8c8c%13c9c9c%10c%10c%11c%11c2c2c4c4c%12c%12c5c5c6c8c6c8c%13c9c9c%10c%10c%11c2c2c4c4c%12c5c6c5c8c9c%10c2c45)C73C1C(=O)O (centres unmarked) [no. 4, 1-carboxymethyl [60]fullerenopyrrolidine-2,5-dicarboxylic acid]
- IC50 [1, 9]: 91 µM
- IC50 ([5]; Influenza A virus, MDCK, 24 h): 70 µM

Compound: Oc1cc2c(cc1O)CC13c4c5c6c7c8c9c(c%10c%11c1c1c4c4c%12c5c5c6c6c8c8c%13c9c9c%10c%10c%11c%11c1c1c4c4c%12c%12c5c5c6c8c6c8c%13c9c9c%10c%10c%11c1c1c4c4c%12c5c6c5c8c9c%10c1c45)C73C2 (centres unmarked) [no. 1, 1,4-dihydro-6,7-dihydroxy [60]fullerenonaphthlene]
- IC50 H3N2 Aichi strain [1]: could not be calculated
- number of NP-positive cells in comparison with the DMSO [1]: comparable
- expression levels of influenza A NP and NS1 proteins compared with DMSO-treated cells [2]: comparable
- inhibition of the endonuclease activity of full-length PA (M13 mp18 band) [3]: slightly inhibited
- inhibition of the digestion of M13 mp18 by the PA endonuclease domain [4, 10]: no or weak inhibitory activity
- IC50 H1N1 PR8 strain [5]: could not be calculated
- number of NP-positive cells in comparison with the control (DMSO) [5]: comparable
- solubility in water [8]: relatively low

Compound: CCN1C(C(=O)O)C23c4c5c6c7c8c9c(c%10c%11c2c2c4c4c%12c5c5c6c6c8c8c%13c9c9c%10c%10c%11c%11c2c2c4c4c%12c%12c5c5c6c8c6c8c%13c9c9c%10c%10c%11c2c2c4c4c%12c5c6c5c8c9c%10c2c45)C73C1C(=O)O (centres unmarked) [no. 9, 1-ethyl [60]fullerenopyrrolidine-2,5-dicarboxylic acid]
- IC50 H3N2 Aichi strain [1]: could not be calculated
- number of NP-positive cells in comparison with the DMSO [1]: comparable
- expression levels of influenza A NP and NS1 proteins compared with DMSO-treated cells [2]: comparable
- inhibition of the endonuclease activity of full-length PA (M13 mp18 band) [3]: slightly inhibited
- inhibition of the digestion of M13 mp18 by the PA endonuclease domain [4, 10]: no or weak inhibitory activity
- IC50 H1N1 PR8 strain [5]: could not be calculated
- number of NP-positive cells in comparison with the control (DMSO) [5]: comparable

Compound: CC(C)C1NC(C(=O)O)C23c4c5c6c7c8c9c(c%10c%11c2c2c4c4c%12c5c5c6c6c8c8c%13c9c9c%10c%10c%11c%11c2c2c4c4c%12c%12c5c5c6c8c6c8c%13c9c9c%10c%10c%11c2c2c4c4c%12c5c6c5c8c9c%10c2c45)C713 (centres unmarked) [no. 5, 5-isopropyl [60]fullerenopyrrolidine-2-carboxylic acid]
- IC50 [1, 9]: > 100 µM
- expression levels of influenza A NP and NS1 proteins compared with DMSO-treated cells [2]: reduced
- IC50 ([5]; Influenza A virus, MDCK, 24 h): 37 µM
